Here are results for 26 compounds from patent US9156796B2, “Benzoimidazole-carboxylic acid amide derivatives as APJ receptor modulators” (SANOFI, priority 2013, dated 2015).

One assay addresses T1, human apelin receptor (Homo sapiens, UniProt P35414).
T1 construct: expressed in transfected cells
T1 sequence (P35414 1-380): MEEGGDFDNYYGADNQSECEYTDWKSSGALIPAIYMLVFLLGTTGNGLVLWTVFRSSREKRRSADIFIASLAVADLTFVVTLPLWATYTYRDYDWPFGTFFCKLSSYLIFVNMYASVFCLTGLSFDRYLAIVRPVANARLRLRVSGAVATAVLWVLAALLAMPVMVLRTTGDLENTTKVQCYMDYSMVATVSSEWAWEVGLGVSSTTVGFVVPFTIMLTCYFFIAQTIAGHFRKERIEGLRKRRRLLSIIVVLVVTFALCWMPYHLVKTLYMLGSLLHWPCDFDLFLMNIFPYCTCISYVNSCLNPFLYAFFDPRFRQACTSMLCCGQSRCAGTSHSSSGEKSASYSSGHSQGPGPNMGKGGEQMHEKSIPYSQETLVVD
As to the kind of experiment: Determination of agonism on the human apelin receptor by a calcium fluorescence assay (FLIPR). Conditions: EC50 (APJ agonism), HEK293 cells stably transfected with human apelin receptor and Giaq protein, Fluo-4 calcium fluorescence. Format: cell-based. Put shortly:
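HEK293 cells stably co-expressing human apelin receptor and promiscuous Giaq, loaded 1 h at 37 °C with Fluo-4 (4 μM) in probenecid-containing Hepes buffer, pH 7.4. Compounds, at least 7 concentrations in triplicate, added in FLIPR Tetra; peak calcium fluorescence normalized to 1 μM apelin-13 as 100% to derive EC50.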
In general, EC50 refers to the concentration that produces a half-maximal response. As to `CCC(CC)n1c(Cc2cccs2)nc2cc(C(=O)NC(CO)C(C)C)ccc21` (centres unmarked) [Example 189, 1-(1-Ethyl-propyl)-2-thiophen-2-ylmethyl-1H-benzoimidazole-5-carboxylic acid (1-hydroxymethyl-2-methyl-propyl)-amide], the EC50 is 12200 nM.
Same read-out and setting: with `CCC(CC)n1c(Cc2cccs2)nc2cc(C(=O)N[C@H](COC)CC(C)C)ccc21` [Example 207, 1-(1-Ethyl-propyl)-2-thiophen-2-ylmethyl-1H-benzoimidazole-5-carboxylic acid ((S)-1-methoxymethyl-3-methyl-butyl)-amide] the figure was 554 nM.

Still in this assay, the particulars now being: HEK293 cells stably transfected with human apelin receptor and Giaq protein, Fluo-4 calcium fluorescence, read-out: EC50 (APJ agonism).
Turning to `CCC(CC)n1c(Cc2cccs2)nc2cc(C(=O)N[C@@H](CC(C)C)C(=O)NCCCN3CCN(CC)CC3)ccc21` [Example 278, 1-(1-Ethyl-propyl)-2-thiophen-2-ylmethyl-1H-benzoimidazole-5-carboxylic acid {(S)-1-[3-{4-ethyl-piperazin-1-yl)-propylcarbamoyl]-3-methyl-butyl}-amide], the EC50 was 405 nM.
On the same count and under the same terms, with `CCC(CC)n1c(CC2CCCCC2)nc2cc(C(=O)N[C@@H](CC3CCCCC3)C(=O)O)ccc21` [Example 141, (S)-3-Cyclohexyl-2-{[2-cyclohexylmethyl-1-(1-ethyl-propyl)-1H-benzoimidazole-5-carbonyl]-amino}-propionic acid] the figure was 23000 nM; with `CCC(CC)n1c(Cc2cccs2)nc2cc(C(=O)N[C@@H](CC(C)C)C(=O)NCC3CCCN(Cc4ccccc4)C3)ccc21` (stereo partly drawn) [Example 286, 1-(1-Ethyl-propyl)-2-thiophen-2-ylmethyl-1H-benzoimidazole-5-carboxylic acid {(S)-1-[(1-benzyl-piperidin-3-ylmethyl)-carbamoyl]-3-methyl-butyl}-amide], 1100 nM; with `CCC(CC)n1c(Cc2cccs2)nc2cc(C(=O)N[C@@H](CC(C)C)C(=O)N3CCC(N4CCc5ccccc5C4)CC3)ccc21` [Example 296, 1-(1-Ethyl-propyl)-2-thiophen-2-ylmethyl-1H-benzoimidazole-5-carboxylic acid {(S)-1-[4-(3,4-dihydro-1H-isoquinolin-2-yl)-piperidine-1-carbonyl]-3-methyl-butyl}-amide], 1030 nM.
Same read-out and setting: with `CCCC(C)(NC(=O)c1ccc2c(c1)nc(Cc1cccs1)n2C(CC)CC)C(=O)O` (centres unmarked) [Example 25, 2-{[1-(1-Ethyl-propyl)-2-thiophen-2-ylmethyl-1H-benzoimidazole-5-carbonyl]-amino}-2-methyl-pentanoic acid] the figure was 4750 nM.
On the same count and under the same terms, in the case of `CCC(CC)n1c(Cc2cccs2)nc2cc(C(=O)N[C@@H](CC(C)C)C(=O)N3CCC(N(C)Cc4ccccc4)CC3)ccc21` [Example 345, 1-(1-Ethyl-propyl)-2-thiophen-2-ylmethyl-1H-benzoimidazole-5-carboxylic acid {(S)-1-[4-(benzyl-methyl-amino)-piperidine-1-carbonyl]-3-methyl-butyl}-amide] it was 1670 nM; in that of `CC(C)C[C@H](NC(=O)c1ccc2c(c1)nc(Cc1cccs1)n2[C@@H]1CCCC[C@H]1C)[C@@H](O)CC(=O)O` [Example 78, (3S,4S)-3-Hydroxy-6-methyl-4-{[1-((1R,2R)-2-methyl-cyclohexyl)-2-thiophen-2-ylmethyl-1H-benzoimidazole-5-carbonyl]-amino}-heptanoic acid], 101 nM; in that of `CCC(CC)n1c(Cc2cccs2)nc2cc(C(=O)N[C@@H](CC(C)C)C(=O)NCCN3CCOCC3)ccc21` [Example 231, 1-(1-Ethyl-propyl)-2-thiophen-2-ylmethyl-1H-benzoimidazole-5-carboxylic acid [(S)-3-methyl-1-(2-morpholin-4-yl-ethylcarbamoyl)-butyl]-amide], 525 nM.
For the compound `CCC(CC)n1c(Cc2cccs2)nc2cc(C(=O)N[C@@H](CC(C)C)C(=O)N[C@@H](C)c3ccc(OC)cc3)ccc21` [Example 247, 1-(1-Ethyl-propyl)-2-thiophen-2-ylmethyl-1H-benzoimidazole-5-carboxylic acid {(S)-1-[(S)-1-(4-methoxy-phenyl)-ethylcarbamoyl]-3-methyl-butyl}-amide], the EC50 worked out at 7220 nM.
The same measure, in the same setting: in the case of `CCC(CC)n1c(Cc2cccs2)nc2cc(C(=O)N[C@@H](CC(C)C)C(=O)NCc3ccc4c(c3)OCO4)ccc21` [Example 239, 1-(1-Ethyl-propyl)-2-thiophen-2-ylmethyl-1H-benzoimidazole-5-carboxylic acid {(S)-1-[(benzo[1,3]dioxol-5-ylmethyl)-carbamoyl]-3-methyl-butyl}-amide] it was 5590 nM; in that of `CCC(CC)n1c(Cc2cccs2)nc2cc(C(=O)N[C@@H](CC(C)C)C(=O)Nc3ccc(CN4CCC(C)CC4)cc3)ccc21` [Example 283, 1-(1-Ethyl-propyl)-2-thiophen-2-ylmethyl-1H-benzoimidazole-5-carboxylic acid {(S)-3-methyl-1-[4-(4-methyl-piperidin-1-ylmethyl)-phenylcarbamoyl]-butyl}-amide], 4500 nM.
The same measure, in the same setting: in the case of `C[C@@H]1CCCC[C@H]1n1c(Cc2cccs2)nc2cc(C(=O)NC(CC3CCCC3)C(=O)O)ccc21` (single isomer, unassigned) [Example 442] it was 134 nM.
Same read-out and setting: with `CCC(CC)n1c(Cc2cccs2)nc2cc(C(=O)N[C@@H](CC(C)C)C(=O)NC[C@H]3CCCO3)ccc21` [Example 367, 1-(1-Ethyl-propyl)-2-thiophen-2-ylmethyl-1H-benzoimidazole-5-carboxylic acid ((S)-3-methyl-1-{[(R)-1-(tetrahydro-furan-2-yl)methyl]-carbamoyl}-butyl)-amide] the figure was 1660 nM; with `CCC(C)n1c(CC2CCCC2)nc2cc(C(=O)N[C@@H](CC(C)C)C(=O)O)ccc21` (stereo partly drawn) [Example 149, (S)-2-[(1-sec-Butyl-2-cyclopentylmethyl-1H-benzoimidazole-5-carbonyl)-amino]-4-methyl-pentanoic acid], 27000 nM; with `CCC(CC)n1c(Cc2cccs2)nc2cc(C(=O)NC(Cc3ccc(C(F)(F)F)cc3)C(=O)O)ccc21` (centres unmarked) [Example 31, 2-{[1-(1-Ethyl-propyl)-2-thiophen-2-ylmethyl-1H-benzoimidazole-5-carbonyl]-amino}-3-(4-trifluoromethyl-phenyl)-propionic acid], 4110 nM.
For the compound `CCC(CC)n1c(Cc2cccs2)nc2cc(C(=O)N[C@@H](CC(C)C)C(=O)NCC3CCCCO3)ccc21` (stereo partly drawn) [Example 386, 1-(1-Ethyl-propyl)-2-thiophen-2-ylmethyl-1H-benzoimidazole-5-carboxylic acid {(S)-3-methyl-1-[(tetrahydro-pyran-2-ylmethyl)-carbamoyl]-butyl}-amide], the EC50 turned out to be 2230 nM.
With `CC(C)C[C@H](NC(=O)c1ccc2c(c1)nc(Cc1cccs1)n2C1CCCCC1C)C(=O)O` (single isomer, unassigned) [Example 414], the EC50 amounted to 664 nM.
The same measure, in the same setting: with `CCC(CC)n1c(Cc2cccs2)nc2cc(C(=O)N[C@@H](CC(C)C)C(=O)N3CCN(Cc4ccccc4)CC3)ccc21` [Example 271, 1-(1-Ethyl-propyl)-2-thiophen-2-ylmethyl-1H-benzoimidazole-5-carboxylic acid [(S)-1-(4-benzyl-piperazine-1-carbonyl)-3-methyl-butyl]-amide] the figure was 3260 nM; with `CCC(CC)n1c(Cc2cccs2)nc2cc(C(=O)N[C@@H](CC(C)C)C(=O)NC3CCN(CC)CC3)ccc21` [Example 340, 1-(1-Ethyl-propyl)-2-thiophen-2-ylmethyl-1H-benzoimidazole-5-carboxylic acid [(S)-1-(1-ethyl-piperidin-4-ylcarbamoyl)-3-methyl-butyl]-amide], 185 nM.
The same measure, in the same setting: in the case of `CCC(CC)n1c(Cc2cccs2)nc2cc(C(=O)N[C@@H](CC(C)C)C(=O)N(CC)CC3CCCCO3)ccc21` (stereo partly drawn) [Example 396, 1-(1-Ethyl-propyl)-2-thiophen-2-ylmethyl-1H-benzoimidazole-5-carboxylic acid {(S)-1-[ethyl-(tetrahydro-pyran-2-ylmethyl)-carbamoyl]-3-methyl-butyl}-amide] it was 4040 nM.
In the case of `CCC(CC)n1c(Cc2cccs2)nc2cc(C(=O)N[C@@H](CC(C)C)C(=O)NC3CCN(Cc4c(OC)cccc4OC)CC3)ccc21` [Example 288, 1-(1-Ethyl-propyl)-2-thiophen-2-ylmethyl-1H-benzoimidazole-5-carboxylic acid {(S)-1-[1-(2,6-dimethoxy-benzyl)-piperidin-4-ylcarbamoyl]-3-methyl-butyl}-amide], the EC50 was 512 nM.
The same measure, in the same setting: in the case of `C[C@@H]1CCCC[C@H]1n1c(Cc2cccs2)nc2cc(C(=O)NC(CC3CCCC3)C(=O)O)ccc21` (single isomer, unassigned) [Example 443] it was 1450 nM; in that of `CCC(CC)n1c(Cc2cccs2)nc2cc(C(=O)N[C@@H](CC(C)C)C(=O)NCC(=O)O)ccc21` [Example 408, ((S)-2-{[1-(1-Ethyl-propyl)-2-thiophen-2-ylmethyl-1H-benzoimidazole-5-carbonyl]-amino}-4-methyl-pentanoylamino)-acetic acid], 447 nM.
Same read-out and setting: with `CCC(CC)n1c(Cc2ccoc2)nc2cc(C(=O)N[C@H](CC(=O)O)CC(C)C)ccc21` [Example 154, (S)-3-{[1-(1-Ethyl-propyl)-2-furan-3-ylmethyl-1H-benzoimidazole-5-carbonyl]-amino}-5-methyl-hexanoic acid] the figure was 270 nM.
